The values that follow come from patent US10767212B2, “Method of screening compounds” (Cornell University, priority 2016, dated 2020).

Broadly, the IC50 is the point on the concentration scale where inhibition reaches its midpoint. Low values mean higher potency, high ones lower potency. Usually Km stands for the substrate concentration at which the rate is half of its maximum. As usually defined, the Vmax is the rate approached at saturating substrate.

In series [1] the target is T1, GACF327W (Mus musculus, UniProt D3Z7P3, F327W).
T1 sequence (D3Z7P3 73-603 isoform D3Z7P3-2 F327W): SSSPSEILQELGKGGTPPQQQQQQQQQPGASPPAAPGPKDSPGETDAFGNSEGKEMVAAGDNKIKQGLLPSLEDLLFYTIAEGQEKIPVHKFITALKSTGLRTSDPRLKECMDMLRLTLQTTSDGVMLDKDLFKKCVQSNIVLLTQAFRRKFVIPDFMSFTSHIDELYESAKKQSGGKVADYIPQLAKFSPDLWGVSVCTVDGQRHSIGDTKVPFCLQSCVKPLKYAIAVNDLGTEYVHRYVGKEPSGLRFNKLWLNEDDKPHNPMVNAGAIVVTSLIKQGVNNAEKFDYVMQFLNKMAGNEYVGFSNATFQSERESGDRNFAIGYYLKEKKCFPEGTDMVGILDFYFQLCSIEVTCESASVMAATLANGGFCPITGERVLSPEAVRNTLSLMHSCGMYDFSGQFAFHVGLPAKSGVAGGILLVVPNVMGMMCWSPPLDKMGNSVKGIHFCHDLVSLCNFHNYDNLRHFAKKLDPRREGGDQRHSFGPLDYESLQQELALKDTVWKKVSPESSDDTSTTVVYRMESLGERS
Particulars: for enhancement of the tryptophan fluorescence of the F327W mutant: addition of anionic activator, 50 mM anion, 400 nM F327W in FIG. 10A.

For another series, the target named is T2, GAC tetramers (Mus musculus, UniProt D3Z7P3).
T2 sequence (D3Z7P3 73-603 isoform D3Z7P3-2): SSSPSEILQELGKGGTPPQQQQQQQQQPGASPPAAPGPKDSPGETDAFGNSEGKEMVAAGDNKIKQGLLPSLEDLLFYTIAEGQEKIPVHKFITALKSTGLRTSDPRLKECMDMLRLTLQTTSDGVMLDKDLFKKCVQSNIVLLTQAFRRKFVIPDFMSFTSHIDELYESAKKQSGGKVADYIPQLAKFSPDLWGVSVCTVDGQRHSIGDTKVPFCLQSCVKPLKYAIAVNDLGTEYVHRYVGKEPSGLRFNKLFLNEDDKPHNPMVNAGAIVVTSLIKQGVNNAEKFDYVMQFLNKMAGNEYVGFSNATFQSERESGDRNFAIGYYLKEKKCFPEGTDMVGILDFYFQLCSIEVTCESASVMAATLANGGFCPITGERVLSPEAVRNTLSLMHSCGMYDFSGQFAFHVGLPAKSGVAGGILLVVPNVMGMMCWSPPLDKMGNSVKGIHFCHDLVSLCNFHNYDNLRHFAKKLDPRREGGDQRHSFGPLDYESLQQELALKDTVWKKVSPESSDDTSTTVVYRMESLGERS
Particulars: for FRET signal (GAC tetramer formation): 25 nM 488-labeled GAC, 75 nM QSY9-GAC; for reversibility of bound GAC tetramers: after addition of excess unlabeled GAC subunits.

Series [2] concerns the target T3, GAC (Mus musculus, UniProt D3Z7P3).
T3 sequence (D3Z7P3 73-603 isoform D3Z7P3-2): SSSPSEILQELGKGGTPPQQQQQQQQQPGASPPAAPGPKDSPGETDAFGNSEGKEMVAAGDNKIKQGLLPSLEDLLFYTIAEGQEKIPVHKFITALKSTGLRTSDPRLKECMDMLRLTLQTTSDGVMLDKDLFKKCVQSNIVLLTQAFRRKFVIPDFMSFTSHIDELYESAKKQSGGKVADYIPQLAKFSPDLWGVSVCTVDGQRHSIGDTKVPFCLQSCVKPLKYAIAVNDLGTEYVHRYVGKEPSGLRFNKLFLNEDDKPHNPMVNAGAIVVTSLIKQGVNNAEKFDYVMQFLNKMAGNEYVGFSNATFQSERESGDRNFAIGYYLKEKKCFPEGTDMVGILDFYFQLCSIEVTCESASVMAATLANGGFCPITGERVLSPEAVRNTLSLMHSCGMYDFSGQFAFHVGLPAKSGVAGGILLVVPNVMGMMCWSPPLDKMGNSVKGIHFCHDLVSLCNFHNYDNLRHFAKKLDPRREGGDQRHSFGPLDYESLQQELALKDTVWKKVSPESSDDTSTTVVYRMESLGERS
The series is described as follows: biochemical.

Series [3] concerns the target T1, GACF327W. As to the kind of experiment: biochemical. The conditions noted are these: KD from fluorescence quenching of the GACF327W mutant, 100 nM GACF327W; fit to a bimolecular interaction equation.
Series [4] addresses T3, GAC. The series is described as follows: Real-time NADH fluorescence assay of GAC activity. In kind it is biochemical. More on the design: residues 73-603) was cloned into a pET28a vector; His tag with thrombin cleavage site (N); made in house. The conditions noted are these: 1 μM inhibitor, 10 nM GAC, 20 mM glutamine, 100 mM HPO4^2−. An excerpt:
FIG. 4A is a spectra of real-time NADH assays of GAC activity, in which the increased NADH fluorescence (in arbitrary units (AU)) results from the coupled reaction where GAC catalyzes glutamate production, and GDH converts glutamate to α-ketoglutarate and NAD to NADH. […] FIG. 4B is a graph of relative glutaminase activity. […] Error bars represent the standard deviation of three independent experiments.

For series [5], the target named is T3, GAC. Particulars: for Kd: read-out: KD values from glutaminase activity with increasing concentrations of anion, 50 nM WT GAC, allosteric activation.
The target of another series is T4, WT GAC (Mus musculus, UniProt D3Z7P3).
T4 sequence (D3Z7P3 73-603 isoform D3Z7P3-2): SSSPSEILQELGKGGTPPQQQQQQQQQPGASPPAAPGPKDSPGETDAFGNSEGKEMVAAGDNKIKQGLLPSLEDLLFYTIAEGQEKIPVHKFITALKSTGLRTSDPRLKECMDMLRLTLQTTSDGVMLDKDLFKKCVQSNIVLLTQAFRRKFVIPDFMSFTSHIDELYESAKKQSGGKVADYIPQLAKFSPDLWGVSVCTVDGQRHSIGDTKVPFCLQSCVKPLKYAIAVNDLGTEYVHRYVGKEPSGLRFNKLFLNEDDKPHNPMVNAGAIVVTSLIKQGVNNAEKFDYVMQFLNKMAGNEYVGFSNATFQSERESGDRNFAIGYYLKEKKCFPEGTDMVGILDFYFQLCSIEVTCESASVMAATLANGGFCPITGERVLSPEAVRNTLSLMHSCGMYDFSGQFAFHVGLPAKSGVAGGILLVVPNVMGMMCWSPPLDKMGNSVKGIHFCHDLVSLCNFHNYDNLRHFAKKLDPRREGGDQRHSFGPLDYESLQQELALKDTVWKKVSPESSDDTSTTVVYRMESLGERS
The conditions noted are these: 5 mg/ml WT GAC; 50 mM anion in the running buffer.

Series [6] is described as follows: Catalytic properties of GAC proteins (phosphate-stimulated glutaminase activity). It is filed as biochemical, mouse.

Where “and” joins values, the source holds several entries; their conditions need not be identical. Identical values can stand only once. Like-named read-outs stand apart in the source and are kept apart here.

For the molecule `O=C(Cc1cccc(OC(F)(F)F)c1)Nc1ccc(CCCCc2nnc(NC(=O)Cc3ccccn3)s2)nn1` [CB-839], at GACF327W [1] (1 μM BPTES in FIG. 6B, increasing concentrations in FIGS. 8A-B), the “change in tryptophan fluorescence of GACF327W upon addition of inhibitor” value is given as “dose-dependent quenching”. Further, on GACF327W [1] (real-time F327W fluorescence), the “binding kinetics (comparison)” value is “slower binding kinetics than BPTES”. Moreover, the “FRET signal (GAC tetramer formation)” value at GAC tetramers (500 nM inhibitor) is reported as “rapidly increases the FRET signal”. For the same molecule, the “reversibility of bound GAC tetramers” value on GAC tetramers is listed as “resistant to dissociation”. The same molecule yielded an IC50 at GAC [2] of 0.023 ± 0.001 µM. Further, at GACF327W [3], the Kd was 0.034 µM and 0.03 µM. Moreover, the “inhibition of phosphate-stimulated GAC activity (initial rate analysis)” value against GAC [4] is on record as “stronger inhibition”.

Regarding `O=P(O)(O)O` [inorganic phosphate], the “enhancement of the tryptophan fluorescence of the F327W mutant” value on GACF327W [1] was determined as 25%. Also, at GAC tetramers (100 mM anion), the “FRET signal (GAC tetramer formation)” value is “rapidly increases the FRET signal”. Besides, the “reversibility of bound GAC tetramers” value at GAC tetramers is on record as “readily reversible”. In addition, the Kd on GAC [5] was 20600 ± 400 µM. In addition, the “oligomer size from molecular weight distribution” value on WT GAC is reported as “greater than 32 mers”.

As for `O=S(=O)(O)O` [sulfate], the “enhancement of the tryptophan fluorescence of the F327W mutant” value at GACF327W [1] stood at 15%. Also, the “FRET signal (GAC tetramer formation)” value at GAC tetramers (100 mM anion) is “rapidly increases the FRET signal”. The “reversibility of bound GAC tetramers” value on GAC tetramers is “readily reversible”. In addition, on GAC [5], the Kd worked out at 36400 ± 3000 µM. For the same molecule, the “effectiveness in activating GAC relative to phosphate” value on GAC [5] (relative to phosphate (HPO4^2−)) is on record as −50%.

B1: GACF327W: mutant mouse GLS protein (GAC) with phenylalanine to tryptophan substitution at position 327 (protein)
chain: MMRLRGSAMLRELLLRPPAAVGAVLRRAQPLGTLCRRPRGGSRPTAGLVAAARLHPWWGGGGRAKGPGAGGLSSSPSEILQELGKGGTPPQQQQQQQQQPGASPPAAPGPKDSPGETDAFGNSEGKEMVAAGDNKIKQGLLPSLEDLLFYTIAEGQEKIPVHKFITALKSTGLRTSDPRLKECMDMLRLTLQTTSDGVMLDKDLFKKCVQSNIVLLTQAFRRKFVIPDFMSFTSHIDELYESAKKQSGGKVADYIPQLAKFSPDLWGVSVCTVDGQRHSIGDTKVPFCLQSCVKPLKYAIAVNDLGTEYVHRYVGKEPSGLRFNKLWLNEDDKPHNPMVNAGAIVVTSLIKQGVNNAEKFDYVMQFLNKMAGNEYVGFSNATFQSERESGDRNFAIGYYLKEKKCFPEGTDMVGILDFYFQLCSIEVTCESASVMAATLANGGFCPITGERVLSPEAVRNTLSLMHSCGMYDFSGQFAFHVGLPAKSGVAGGILLVVPNVMGMMCWSPPLDKMGNSVKGIHFCHDLVSLCNFHNYDNLRHFAKKLDPRREGGDQRHSFGPLDYESLQQELALKDTVWKKVSPESSDDTSTTVVYRMESLGERS
modifications: Mouse GAC with F327W substitution
In the case of B1, in series [6], the Michaelis constant (Km) turned out to be 15 ± 1.7 mM and the Vmax amounted to 435 ± 19 µmol/min.

B2: WT GAC: recombinant wild-type mouse glutaminase C, NP_001106854.1, residues 73-603 (protein)
chain: SSSPSEILQELGKGGTPPQQQQQQQQQPGASPPAAPGPKDSPGETDAFGNSEGKEMVAAGDNKIKQGLLPSLEDLLFYTIAEGQEKIPVHKFITALKSTGLRTSDPRLKECMDMLRLTLQTTSDGVMLDKDLFKKCVQSNIVLLTQAFRRKFVIPDFMSFTSHIDELYESAKKQSGGKVADYIPQLAKFSPDLWGVSVCTVDGQRHSIGDTKVPFCLQSCVKPLKYAIAVNDLGTEYVHRYVGKEPSGLRFNKLFLNEDDKPHNPMVNAGAIVVTSLIKQGVNNAEKFDYVMQFLNKMAGNEYVGFSNATFQSERESGDRNFAIGYYLKEKKCFPEGTDMVGILDFYFQLCSIEVTCESASVMAATLANGGFCPITGERVLSPEAVRNTLSLMHSCGMYDFSGQFAFHVGLPAKSGVAGGILLVVPNVMGMMCWSPPLDKMGNSVKGIHFCHDLVSLCNFHNYDNLRHFAKKLDPRREGGDQRHSFGPLDYESLQQELALKDTVWKKVSPESSDDTSTTVVYRMESLGERS
modifications: left off: small tags and cut ends
For B2, in series [6], the Km came to 16.4 ± 0.4 mM and the Vmax was 453 ± 8 µmol/min.
